# Test results from patent publication US20220386606A1, “SPECIFICALLY SUBSTITUTED 3-PHENYL-5-SPIROCYCLOPENTYL-3-PYRROLIN-2-ONES AND THEIR USE AS HERBICIDES” (Bayer Aktiengesellschaft, priority 2019, published 2022).
# Tests used:
# [1] = system: ALOMY; experiment: Post-emergence herbicidal action against ALOMY; format: in vivo, Alopecurus myosuroides; details: 80 g/ha, visual assessment after about 3 weeks
# In short: (§1)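 Plants at the one-leaf stage receive a foliar spray of the formulated compound, with a 600 to 800 l/ha water rate and 0.2% wetting agent. Percent activity is judged by eye after roughly 3 weeks in the greenhouse.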
# [2] = system: ECHCG; experiment: Post-emergence herbicidal action against ECHCG; format: in vivo, Echinochloa crus-galli; details: 80 g/ha, visual assessment about 3 weeks after treatment vs untreated controls
# In short: as §1
# [3] = system: PHBPU; experiment: Post-emergence herbicidal action against PHBPU; format: in vivo; details: assessed visually after about 3 weeks, 100% = plants have died, 0% = like control plants
# Protocol: (§2) Seeds of monocotyledonous and dicotyledonous weed and crop plants are laid out in sandy loam soil in wood-fiber pots, covered with soil and cultivated in a greenhouse under good growth conditions. 2 to 3 weeks after sowing, the test plants are treated at the one-leaf stage. The compounds of the invention, formulated in the form of wettable powders (WP) or as emulsion concentrates (EC), are then sprayed onto the green parts of the plants as aqueous suspension or emulsion at a water application rate equating to 600 to 800 l/ha with addition of 0.2% wetting agent. After the test plants have been left to stand in the greenhouse under optimal growth conditions for about 3 weeks, the action of the preparations is assessed visually in comparison to untreated controls (herbicidal action in percent (%): 100% activity=the plants have died, 0% activity=like control plants).
# [4] = system: SETVI; experiment: Pre-emergence herbicidal action against SETVI; format: in vivo, Setaria viridis; details: 320 g/ha, scored visually after 3 weeks vs untreated controls
# In short: (§3)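 Seeds sown in sandy loam in wood-fiber pots and covered with soil; WP or EC formulations applied to covering soil surface as aqueous suspension/emulsion at 600 to 800 L/ha water plus 0.2% wetting agent. Greenhouse-grown; damage scored visually after 3 weeks versus untreated controls (100% = dead, 0% = like control).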
# [5] = system: LOLRI; experiment: Post-emergence herbicidal action against LOLRI; format: in vivo, Lolium rigidum; details: 80 g/ha, visual assessment about 3 weeks after treatment vs untreated controls
# In short: as §1
# [6] = system: AVEFA; experiment: Post-emergence herbicidal action against AVEFA; format: in vivo, Avena fatua; details: 80 g/ha, visual assessment after about 3 weeks
# In short: as §1
# [7] = system: SETVI; experiment: Post-emergence herbicidal action against SETVI; format: in vivo, Setaria viridis; details: 80 g/ha, visual assessment about 3 weeks after treatment vs untreated controls
# In short: as §1
# [8] = system: LOLRI; experiment: Pre-emergence herbicidal action against LOLRI (Table 8, titled post-emergence at 320 g/ha); format: in vivo, Lolium rigidum; details: table stands in the pre-emergence section
# In short: as §3
# [9] = system: DIGSA; experiment: Post-emergence herbicidal action against DIGSA; format: in vivo, Digitaria sanguinalis; details: 80 g/ha, visual assessment about 3 weeks after treatment vs untreated controls
# In short: as §1
# [10] = system: AVEFA; experiment: Pre-emergence herbicidal action against AVEFA; format: in vivo, Avena fatua; details: 320 g/ha, scored visually after 3 weeks vs untreated controls
# In short: as §3
# [11] = system: DIGSA; experiment: Pre-emergence herbicidal action against DIGSA; format: in vivo, Digitaria sanguinalis; details: 320 g/ha, scored visually after 3 weeks vs untreated controls
# In short: as §3
# [12] = system: VIOTR; experiment: Pre-emergence herbicidal action against VIOTR; format: in vivo, Viola tricolor; details: 320 g/ha
# In short: as §3
# [13] = system: ECHCG; experiment: Pre-emergence herbicidal action against ECHCG; format: in vivo, Echinochloa crus-galli; details: 320 g/ha, scored visually after 3 weeks vs untreated controls
# In short: as §3
# [14] = system: VERPE; experiment: Post-emergence herbicidal action against VERPE; format: in vivo, Veronica persica; details: 80 g/ha, visual assessment about 3 weeks after treatment vs untreated controls
# Protocol: as §2
# [15] = system: ALOMY; experiment: Pre-emergence herbicidal action against ALOMY; format: in vivo, Alopecurus myosuroides; details: 320 g/ha, scored visually after 3 weeks vs untreated controls
# In short: as §3
# [16] = system: ABUTH; experiment: Post-emergence herbicidal action against ABUTH; format: in vivo, Abutylon threophrasti; details: 80 g/ha, visual assessment about 3 weeks after treatment vs untreated controls
# In short: as §1
# [17] = system: VIOTR; experiment: Post-emergence herbicidal action against VIOTR; format: in vivo, Viola tricolor; details: 80 g/ha, visual assessment about 3 weeks after treatment vs untreated controls
# Protocol: as §2
# [18] = system: ABUTH; experiment: Pre-emergence herbicidal action against ABUTH; format: in vivo, Abutylon threophrasti; details: 320 g/ha
# In short: as §3
# [19] = system: MATIN; experiment: Pre-emergence herbicidal action against MATIN; format: in vivo; details: 320 g/ha
# In short: as §3
# [20] = system: AMARE; experiment: Post-emergence herbicidal action against AMARE; format: in vivo, Amaranthus retroflexus; details: 80 g/ha, visual assessment about 3 weeks after treatment vs untreated controls
# Protocol: as §2
# [21] = system: POLCO; experiment: Pre-emergence herbicidal action against POLCO; format: in vivo, Polygonum convolvulus; details: 320 g/ha
# In short: as §3
# [22] = system: AMARE; experiment: Pre-emergence herbicidal action against AMARE; format: in vivo, Amaranthus retroflexus; details: 320 g/ha
# In short: as §3
# [23] = system: VERPE; experiment: Pre-emergence herbicidal action against VERPE; format: in vivo, Veronica persica; details: 320 g/ha
# In short: as §3
SMILES,Post-emergence action against ALOMY in % [1],Post-emergence action against ECHCG in % [2],Post-emergence action at 80 g/ha against PHBPU in % [3],Pre-emergence action against SETVI in % [4],Post-emergence action against LOLRI in % [5],Post-emergence action against AVEFA in % [6],Post-emergence action against SETVI in % [7],Pre-emergence herbicidal action against LOLRI in % [8],Post-emergence action against DIGSA in % [9],Pre-emergence action against AVEFA in % [10],Pre-emergence action against DIGSA in % [11],Pre-emergence action against VIOTR in % [12],Pre-emergence action against ECHCG in % [13],Post-emergence action against VERPE in % [14],Pre-emergence action against ALOMY in % [15],Post-emergence action against ABUTH in % [16],Pre-emergence action against MATIN in % [19],Pre-emergence action against POLCO in % [21],Pre-emergence action against AMARE in % [22],Pre-emergence action against VERPE in % [23],also measured
CC#Cc1cc(F)c(C2=C(O)C3(CCC(COC)C3)NC2=O)c(OC)c1 (stereo not drawn) [Example I-41],100%,100%,80%,100%,90%,90%,100%,100%,100%,80%,100%,,,,,,,,,,
CC#Cc1cc(C)c(C2=C(O)C3(CCC(COCC)C3)NC2=O)c(OC)c1 (stereo not drawn) [Example I-32],100%,100%,,100%,100%,100%,,100%,100%,90%,100%,100%,100%,80%,100%,80%,,,,,Post-emergence action against VIOTR in % [17]: 80%
CC#Cc1cc(C)c(C2=C(O)C3(CCC(COCC)C3)NC2=O)c(Cl)c1 (stereo not drawn) [Example I-02],100%,100%,,100%,100%,90%,100%,100%,90%,100%,100%,100%,100%,90%,100%,80%,90%,100%,100%,90%,Pre-emergence action against ABUTH in % [18]: 100%; Post-emergence action against AMARE in % [20]: 80%
CC#Cc1cc(C)c(C2=C(OC(=O)OCC)C3(CCC(COCCC)C3)NC2=O)c(OC)c1 (stereo not drawn) [Example P-81],100%,100%,80%,100%,100%,80%,100%,100%,90%,100%,100%,100%,100%,,100%,,80%,100%,100%,90%,
CC#Cc1cc(C)c(C2=C(OC(=O)OCC)C3(CCC(COC)C3)NC2=O)c(F)c1 (stereo not drawn) [Example P-52],100%,100%,,100%,100%,90%,,100%,100%,90%,100%,90%,100%,80%,100%,80%,,80%,80%,,Post-emergence action against AMARE in % [20]: 80%
CC#Cc1cc(C)c(C2=C(OC(=O)OCC)C3(CCC(COC)C3)NC2=O)c(Br)c1 (stereo not drawn) [Example P-30],100%,100%,,100%,100%,90%,100%,100%,100%,100%,100%,100%,100%,80%,100%,80%,,80%,100%,80%,Pre-emergence action against ABUTH in % [18]: 80%
CC#Cc1cc(C)c(C2=C(O)C3(CCC(COCCC)C3)NC2=O)c(OC)c1 (stereo not drawn) [Example I-58],100%,100%,80%,100%,100%,,100%,100%,90%,80%,100%,90%,100%,,100%,,100%,,100%,,Post-emergence action against VIOTR in % [17]: 80%
